Test results: patent publication US20200237759A1, “DOSAGE REGIME AND METHOD FOR TREATING PULMONARY ARTERIAL HYPERTENSION” (Altavant Sciences GmbH, priority 2019, published 2020)

Test: Part 2 MAD plasma pharmacokinetics, BID oral KAR5585 for 14 days
Settings: for tmax: Median
[1] = 100 mg (Cohort 2) to 400 mg (Cohort 4) BID fed, 4-fold increase in dose
[2] = 100 mg BID fasted, Cohort 1, Day 1 AM, Mean
[3] = 100 mg BID fasted, Cohort 1, Day 14, Mean
[4] = 100 mg BID fed, Cohort 2, Day 1 AM, Mean
[5] = 100 mg BID fed, Cohort 2, Day 1 PM, Geo. Mean
[6] = 100 mg BID fed, Cohort 2, Day 1 PM, Mean
[7] = 100 mg BID fed, Cohort 2, Day 7 AM, Geo. Mean
[8] = 100 mg BID fed, Cohort 2, Day 7 AM, Mean
[9] = 100 mg BID fed, Cohort 2, Day 7 PM, Geo. Mean
[10] = 100 mg BID fed, Cohort 2, Day 14 AM, Geo. Mean
[11] = 100 mg BID fed, Cohort 2, Day 14 AM, Mean
[12] = 100 mg KAR5585 BID, fasted (Part 2, Cohort 1)
[13] = 200 mg BID fed, Cohort 3, Day 1 AM, Geo. Mean
[14] = 200 mg BID fed, Cohort 3, Day 1 PM, Geo. Mean
[15] = 200 mg BID fed, Cohort 3, Day 7 AM, Geo. Mean
[16] = 200 mg BID fed, Cohort 3, Day 7 AM, Mean
[17] = 200 mg BID fed, Cohort 3, Day 7 PM, Geo. Mean
[18] = 200 mg BID fed, Cohort 3, Day 7 PM, Mean
[19] = 200 mg BID fed, Cohort 3, Day 14 AM, Geo. Mean
[20] = 200 mg BID fed, Cohort 3, Day 14 AM, Mean
[21] = 400 mg BID fed, Cohort 4, Day 1 AM, Geo. Mean
[22] = 400 mg BID fed, Cohort 4, Day 1 PM, Geo. Mean
[23] = 400 mg BID fed, Cohort 4, Day 7 AM, Geo. Mean
[24] = 400 mg BID fed, Cohort 4, Day 7 PM, Geo. Mean
[25] = 400 mg BID fed, Cohort 4, Day 7 PM, Mean
[26] = 400 mg BID fed, Cohort 4, Day 14 AM, Geo. Mean
[27] = 400 mg BID fed, Cohort 4, Day 14 AM, Mean

Description: Food effect was to be evaluated in Part 1, Period 2.
Part 2 (MAD): BID doses (separated by approximately 12 hours on Days 1 to 13) and a single AM dose on Day 14. One or more of the MAD Cohort could have been dosed once daily (QD).
Pharmacokinetic data were to be summarized descriptively.

Nc1nc(O[C@H](c2ccc(Cl)cc2-c2ccccc2)C(F)(F)F)cc(N2CCC3(CC2)CN[C@H](C(=O)O)C3)n1 [KAR5417, (S)-8-(2-amino-6-((R)-1-(5-chloro-[1,1′-biphenyl]-2-yl)-2,2,2-trifluoroeth-oxy)pyrimidin-4-yl)-2,8-diazaspiro[4.5]decane-3-carboxylic acid]
increase in mean AUC0-12, Day 1 [1]: 7.0 fold | increase in mean AUC0-12, Day 14 [1]: 4.6 fold | increase in mean AUC0-24, Day 1 [1]: 6.45 fold | increase in mean AUC0-24, Day 14 [1]: 4.45 fold | increase in mean Cmax, Day 1 [1]: 6.9 fold | increase in mean Cmax, Day 14 [1]: ~4.5 fold | AUC0-12 [2]: 741 ng·h/mL | Cmax [2]: 121 ng/mL | t1/2 [2]: 3.43 h | tmax (100 mg BID fasted, Cohort 1, Day 1 AM): 3.0 h | AUC0-12 [3]: 1280 ng·h/mL | AUC0-24 [3]: 1650 ng·h/mL | Cmax [3]: 194 ng/mL | t1/2 [3]: 18.8 h | tmax (100 mg BID fasted, Cohort 1, Day 14): 3.0 h | t1/2 (100 mg BID fed, Cohort 2, Day 1 AM, Geo. Mean): 4.16 h | AUC0-12 [4]: 470 ng·h/mL | Cmax [4]: 85.9 ng/mL | tmax (100 mg BID fed, Cohort 2, Day 1 AM): 2.0 h | AUC0-12 [5]: 714 ng·h/mL | AUC0-24 [5]: 1160 ng·h/mL | AUC0-∞ [5]: 1090 ng·h/mL | Cmax [5]: 119 ng/mL | AUC0-12 [6]: 748 ng·h/mL | AUC0-24 [6]: 1220 ng·h/mL | tmax (100 mg BID fed, Cohort 2, Day 1 PM): 3.0 h | AUC0-12 [7]: 1050 ng·h/mL | AUC0-∞ [7]: 1380 ng·h/mL | t1/2 [7]: 5.24 h | Cmax [8]: 168 ng/mL | t1/2 [8]: 5.31 h | tmax (100 mg BID fed, Cohort 2, Day 7 AM): 3.0 h | AUC0-12 [9]: 875 ng·h/mL | AUC0-24 [9]: 1930 ng·h/mL | AUC0-∞ [9]: 1700 ng·h/mL | Cmax [9]: 106 ng/mL | t1/2 [9]: 7.91 h | Cmax (100 mg BID fed, Cohort 2, Day 7 PM, Mean): 112 ng/mL | tmax (100 mg BID fed, Cohort 2, Day 7 PM): 6.0 h | RCmax (100 mg BID fed, Cohort 2, Day 14 AM, Day 14/Day 1 accumulation ratio, Geo. Mean): 1.90 | AUC0-12 [10]: 900 ng·h/mL | AUC0-24 [10]: 1220 ng·h/mL | AUC0-∞ [10]: 1780 ng·h/mL | Cmax [10]: 155 ng/mL | t1/2 [10]: 19.0 h | AUC0-12 [11]: 943 ng·h/mL | AUC0-24 [11]: 1270 ng·h/mL | Cmax [11]: 168 ng/mL | t1/2 [11]: 19.6 h | tmax (100 mg BID fed, Cohort 2, Day 14 AM): 2.0 h | time to peak plasma concentrations (range), Day 1 (100 mg KAR5585 BID, Part 2 Cohort 1 (fasted state)): 2.0 to 6.0 h | median tmax Day 14 (100 mg KAR5585 BID, fasted): 3.0 hour postdose | mean peak concentration relative to corresponding peak mean concentration of KAR5585, Day 1 [12]: approximately 7.25 fold | mean peak concentration relative to corresponding peak mean concentration of KAR5585, Day 14 [12]: ~9.1 fold | half-life, Day 14 (100 mg KAR5585 BID, fasted state): 18.8 h | median tmax Day 14 (100 mg KAR5585 BID, fed): 3.0 hour postdose | AUC0-12 [13]: 1620 ng·h/mL | AUC0-∞ [13]: 1980 ng·h/mL | t1/2 [13]: 4.41 h | AUC0-12 (200 mg BID fed, Cohort 3, Day 1 AM, Mean): 1700 ng·h/mL | tmax (200 mg BID fed, Cohort 3, Day 1 AM): 3.0 h | AUC0-24 [14]: 3540 ng·h/mL | AUC0-∞ [14]: 2640 ng·h/mL | Cmax [14]: 307 ng/mL | t1/2 [14]: 5.95 h | AUC0-12 (200 mg BID fed, Cohort 3, Day 1 PM, Mean): 2000 ng·h/mL | tmax (200 mg BID fed, Cohort 3, Day 1 PM): 4.0 h | RCmax (200 mg BID fed, Cohort 3, Day 7 AM, Day 7/Day 1 accumulation ratio, Mean): 1.00 | AUC0-∞ [15]: 2610 ng·h/mL | Cmax [15]: 332 ng/mL | t1/2 [15]: 4.57 h | AUC0-∞ [16]: 2800 ng·h/mL | Cmax [16]: 359 ng/mL | t1/2 [16]: 4.61 h | tmax (200 mg BID fed, Cohort 3, Day 7 AM): 4.0 h | AUC0-12 [17]: 1490 ng·h/mL | AUC0-24 [17]: 3620 ng·h/mL | AUC0-∞ [17]: 2270 ng·h/mL | Cmax [17]: 212 ng/mL | t1/2 [17]: 6.48 h | AUC0-12 [18]: 1540 ng·h/mL | AUC0-24 [18]: 3810 ng·h/mL | AUC0-∞ [18]: 2280 ng·h/mL | Cmax [18]: 222 ng/mL | tmax (200 mg BID fed, Cohort 3, Day 7 PM): 8.0 h | AUC0-12 [19]: 1670 ng·h/mL | AUC0-24 [19]: 2200 ng·h/mL | t1/2 [19]: 24.1 h | AUC0-12 [20]: 1820 ng·h/mL | AUC0-24 [20]: 2380 ng·h/mL | Cmax [20]: 319 ng/mL | t1/2 [20]: 25.0 h | tmax (200 mg BID fed, Cohort 3, Day 14 AM): 3.0 h | AUC0-∞ [21]: 3400 ng·h/mL | t1/2 [21]: 3.71 h | AUC0-∞ (400 mg BID fed, Cohort 4, Day 1 AM, Mean): 3780 ng·h/mL | tmax (400 mg BID fed, Cohort 4, Day 1 AM): 3.0 h | AUC0-∞ [22]: 6860 ng·h/mL | t1/2 [22]: 5.3 h | tmax (400 mg BID fed, Cohort 4, Day 1 PM): 4.0 h | RCmax (400 mg BID fed, Cohort 4, Day 7 AM, Day 7/Day 1 accumulation ratio, Mean): 2.00 | AUC0-∞ [23]: 7480 ng·h/mL | Cmax [23]: 960 ng/mL | t1/2 [23]: 3.89 h | t1/2 (400 mg BID fed, Cohort 4, Day 7 AM, Mean): 3.94 h | tmax (400 mg BID fed, Cohort 4, Day 7 AM): 4.0 h | RAUC0-12 (400 mg BID fed, Cohort 4, Day 7 PM, Day 7/Day 1 accumulation ratio, Geo. Mean): 1.50 | AUC0-12 [24]: 4360 ng·h/mL | AUC0-∞ [24]: 6450 ng·h/mL | Cmax [24]: 574 ng/mL | t1/2 [24]: 5.08 h | AUC0-12 [25]: 4610 ng·h/mL | AUC0-∞ [25]: 6520 ng·h/mL | Cmax [25]: 608 ng/mL | t1/2 [25]: 5.10 h | tmax (400 mg BID fed, Cohort 4, Day 7 PM): 6.0 h | AUC0-12 [26]: 4160 ng·h/mL | AUC0-24 [26]: 5410 ng·h/mL | AUC0-∞ [26]: 8120 ng·h/mL | Cmax [26]: 717 ng/mL | t1/2 [26]: 30.4 h | AUC0-12 [27]: 4350 ng·h/mL | Cmax [27]: 749 ng/mL | t1/2 [27]: 30.6 h | tmax (400 mg BID fed, Cohort 4, Day 14 AM): 3.0 h | tmax Day 7 evening dose (400 mg KAR5585 BID, fed): 6 h | study day by which steady-state plasma levels were achieved (BID oral KAR5585 for 14 days): ≤ 7 days
